Test results reported in US20250250308A1, “METHODS AND COMPOSITIONS WITH ANTIFUNGAL ACTIVITY” (priority 2022, published 2025).

B1: EntV: 68 amino acid active C-terminal form of the E. faecalis bacteriocin EntV (SEQ ID NO: 14) (protein, listed as Enterococcus faecalis)
chain: LGSCVANKIKDEFFAMISISAIVKAAQKKAWKELAVTVLRFAKANGLKTNAIIVAGQLALWAVQCGLS

Experiments:
C. neoformans = experiment: Survival of C. elegans infected with C. neoformans; format: in vivo; details: 1 nM peptide
Method: FIGS. 6A-6D: EntV peptides have activity against many fungal species and strains. Survival over time of C. elegans infected with C. auris, (FIG. 6A), C. neoformans, (FIG. 6B), and C. albicans, (FIG. 6C), paired clinical isolates before (AzS: fluconazole-susceptability) and after gaining fluconazole resistance (AzR), (FIG. 6D). Peptides were added at 1 nM and fluconazole at 4 ug/ml. Statistical differences in survival were compared to animals to the DMSO vehicle control by Mantel-Cox log rank analysis. An n of 60 was used and one representative trial is shown. Exact p values from top to bottom: (FIG. 6A) <0.0001, <0.0001, (FIG. 6B) <0.0001, <0.0001, (FIG. 6C) 0.0013, 0.0004, 0.0035, (FIG. 6D) 0.0050, 0.0040, 0.5539.
EntV peptides have activity against other fungal species and strains. […] Paired clinical isolates of C. albicans, in which fluconazole-resistance had been gained following in-patient evolution were tested and it was determined that animals infected with both the original strain as well as the fluconazole-resistant descendent were protected by EntV ([…]).
Killing of C. elegans by C. albicans. […] Plates were incubated at 25° C., and worm death was scored daily. Kaplan-Meier survival curves were generated and analyzed as described in the quantification and statistical analysis section.

C. albicans = experiment: Killing of C. elegans by C. albicans (survival of infected nematodes); format: in vivo; details: original strain and fluconazole-resistant descendent; 1 nM

Molecule	Survival of C. elegans infected with C. neoformans (C. neoformans)	Protection of C. elegans infected with paired C. albicans clinical isolates (C. albicans)
VAGQLALWAVQC [12aa]	protected C. neoformans infected worms from death	–
B1	–	protected
